Tested on: RAW 264.7 macrophages
Test: Cytotoxicity (CC50) in RAW 264.7 macrophages
Type: cell-based
Conditions: not given
Protocol: (§1) This experiment was conducted according the reported procedure.
Molecule `C=C(C)C1CCC(C)(O)C2CC(O)C(C)C2C1` [Compound 3, (1R,3S,4R,5R,7R,10R)-11(13)-en-3,10-dihydroxyguaiene] has a CC50 of over 50 µM. `N=C(N)NN` [Aminoguanidine, aminoguanidine, reference compound] gave a CC50 of over 50 µM.

Tested on: not listed separately
Test: Cytotoxicity (CC50) in RAW 264.7 macrophages
Type: cell-based
Conditions: mouse
Protocol: as §1
`C=C(CO)[C@@H]1CC[C@@](C)(O)[C@H]2[C@@H](C1)[C@@H](C)C[C@@H]2O` [Compound 6, (1S,2S,4S,5S,7R,10R)-11(13)-en-2,10,12-trihydroxyguaiene] gave a CC50 of over 50 µM. With `C=C(C)C1CCC(C)(O)C2C(O)CC(C)C2C1` [Compound 5, (1S,2S,4S,5S,7R,10R)-11(13)-en-2,10-dihydroxyguaiene] the CC50 was over 50 µM. Work on `C[C@@H]1[C@@H]2C[C@H]([C@](C)(O)CO)CC[C@@](C)(O)[C@@H]2C[C@@H]1O` [Compound 12, (1R,3S,4R,5S,7R,10R,11S)-guaiane-3,10,11,12-tetraol] yielded a CC50 of over 50 µM. `C[C@H]1CC[C@@H]2[C@H]1C[C@H]([C@@H](C)C(=O)O)CC[C@@]2(C)O` [Compound 9, (1R,4S,5S,7R,10R,11R)-10-hydroxyguai-12-oic acid] gave a CC50 of over 50 µM. Molecule `C=C(C)C1CCC(C)(O)C2CCC(C)C2C1` [Compound 2, (1R,4S,5S,7R,10R)-11(13)-en-10-hydroxyguaiene] has a CC50 of over 50 µM. `C=C(C)[C@@H]1CC[C@@](C)(O)[C@@H]2CC(=O)[C@H](C)[C@H]2C1` [Compound 4, (1R,4S,5S,7R,10R)-3-oxo-11(13)-en-10-hydroxyguaiene] gave a CC50 of over 50 µM. In the case of `C=C(C)C1CCC(C)(O)C2CC(O)C(C)C2C1` [Compound 1, (1R,3R,4R,5S,7R,10R)-11(13)-en-3,10-dihydroxyguaiene], the CC50 is reported as over 50 µM. Work on `C[C@](O)(CO)[C@@H]1CC[C@@](C)(O)[C@@H]2CC[C@@](C)(O)[C@@H]2C1` [Compound 8, (1R,4R,5R,7R,10R)-4,10,11-trihydroxyguaiane] yielded a CC50 of over 50 µM. Molecule `CC(=O)OCC(C)(O)C1CCC(C)(O)C2C(O)CC(C)C2C1` [Compound 7, (1S,2S,4S,5S,7R,10R,11R)-12-acetyl-2,10,11-trihydroxyguaiane] has a CC50 of over 50 µM. `C[C@H]1C[C@H](O)[C@@H]2[C@H]1C[C@H]([C@@](C)(O)CO)CC[C@@]2(C)O` [Compound 10, (1S,2S,4S,5S,7R,10R)-guaiane-2,10,11,12-tetraol] showed a CC50 of over 50 µM. With `C[C@H]1CC[C@@H]2[C@H]1C[C@H]([C@](C)(O)CO)CC[C@@]2(C)O` [Compound 11, (1R,4S,5S,7R,10R,11S)-guaiane-10,11,12-triol] the CC50 was over 50 µM. With `C[C@H]1CC[C@@H]2[C@H]1C[C@H]([C@@](C)(O)CO)C[C@@H](O)[C@@]2(C)O` [Compound 13, (1R,4S,5S,7S,9R,10S,11R)-guaiane-9,10,11,12-tetraol] the CC50 was over 50 µM.

Tested on: LPS-induced nitric oxide (NO) production in RAW264.7 macrophages
Test: Inhibition of LPS-induced NO production in RAW264.7 macrophages (anti-inflammatory assay)
Type: cell-based
Conditions: Mus musculus, RAW264.7, RAW 264.7 macrophages, LPS-stimulated; read-out: IC50 (μM), anti-inflammatory activity against LPS-stimulated NO production
Protocol: All isolates were evaluated for their anti-inflammatory activities against LPS-induced NO production in RAW264.7 macrophages (Table 3). […] This experiment was conducted according the reported procedure.
Work on `C=C(CO)[C@@H]1CC[C@@](C)(O)[C@H]2[C@@H](C1)[C@@H](C)C[C@@H]2O` [Compound 6, (1S,2S,4S,5S,7R,10R)-11(13)-en-2,10,12-trihydroxyguaiene] yielded an IC50 of 14.2 µM. For `C=C(C)C1CCC(C)(O)C2C(O)CC(C)C2C1` [Compound 5, (1S,2S,4S,5S,7R,10R)-11(13)-en-2,10-dihydroxyguaiene], the IC50 was 138 µM. In the case of `C[C@@H]1[C@@H]2C[C@H]([C@](C)(O)CO)CC[C@@](C)(O)[C@@H]2C[C@@H]1O` [Compound 12, (1R,3S,4R,5S,7R,10R,11S)-guaiane-3,10,11,12-tetraol], the IC50 is reported as 122 µM. For `C[C@H]1CC[C@@H]2[C@H]1C[C@H]([C@@H](C)C(=O)O)CC[C@@]2(C)O` [Compound 9, (1R,4S,5S,7R,10R,11R)-10-hydroxyguai-12-oic acid], the IC50 was 79.1 µM. For `C=C(C)C1CCC(C)(O)C2CCC(C)C2C1` [Compound 2, (1R,4S,5S,7R,10R)-11(13)-en-10-hydroxyguaiene], the IC50 was 103 µM. In the case of `C=C(C)[C@@H]1CC[C@@](C)(O)[C@@H]2CC(=O)[C@H](C)[C@H]2C1` [Compound 4, (1R,4S,5S,7R,10R)-3-oxo-11(13)-en-10-hydroxyguaiene], the IC50 is reported as 72.9 µM. Molecule `C[C@](O)(CO)[C@@H]1CC[C@@](C)(O)[C@@H]2CC[C@@](C)(O)[C@@H]2C1` [Compound 8, (1R,4R,5R,7R,10R)-4,10,11-trihydroxyguaiane] has an IC50 of 166 µM. `CC(=O)OCC(C)(O)C1CCC(C)(O)C2C(O)CC(C)C2C1` [Compound 7, (1S,2S,4S,5S,7R,10R,11R)-12-acetyl-2,10,11-trihydroxyguaiane] showed an IC50 of 101 µM. `C[C@H]1C[C@H](O)[C@@H]2[C@H]1C[C@H]([C@@](C)(O)CO)CC[C@@]2(C)O` [Compound 10, (1S,2S,4S,5S,7R,10R)-guaiane-2,10,11,12-tetraol] gave an IC50 of 150 µM. For `C[C@H]1CC[C@@H]2[C@H]1C[C@H]([C@](C)(O)CO)CC[C@@]2(C)O` [Compound 11, (1R,4S,5S,7R,10R,11S)-guaiane-10,11,12-triol], the IC50 was 141 µM. `C[C@H]1CC[C@@H]2[C@H]1C[C@H]([C@@](C)(O)CO)C[C@@H](O)[C@@]2(C)O` [Compound 13, (1R,4S,5S,7S,9R,10S,11R)-guaiane-9,10,11,12-tetraol] gave an IC50 of 88.2 µM.

Same assay, conditions: RAW 264.7 macrophages, LPS-stimulated; read-out: IC50 (μM), anti-inflammatory activity against LPS-stimulated NO production
Work on `C=C(C)C1CCC(C)(O)C2CC(O)C(C)C2C1` [Compound 1, (1R,3R,4R,5S,7R,10R)-11(13)-en-3,10-dihydroxyguaiene] yielded an IC50 of 310 µM. `C=C(C)C1CCC(C)(O)C2CC(O)C(C)C2C1` [Compound 3, (1R,3S,4R,5R,7R,10R)-11(13)-en-3,10-dihydroxyguaiene] showed an IC50 of 113 µM. In the case of `N=C(N)NN` [Aminoguanidine, aminoguanidine, reference compound], the IC50 is reported as 23.4 µM.
